Activity calls are given as the source filed them.
Legend:
Type in all cases: functional
Leucine aminopeptidase = target: T1, Leucine aminopeptidase (Plasmodium falciparum 3D7, UniProt Q8IL11); assay: P. falciparum M17LAP inhibitors, primary screen, biochemical, fluorogenic H-Leu-NHMec substrate, 1536-well (AID 1619)
T1 sequence (Q8IL11 whole entry): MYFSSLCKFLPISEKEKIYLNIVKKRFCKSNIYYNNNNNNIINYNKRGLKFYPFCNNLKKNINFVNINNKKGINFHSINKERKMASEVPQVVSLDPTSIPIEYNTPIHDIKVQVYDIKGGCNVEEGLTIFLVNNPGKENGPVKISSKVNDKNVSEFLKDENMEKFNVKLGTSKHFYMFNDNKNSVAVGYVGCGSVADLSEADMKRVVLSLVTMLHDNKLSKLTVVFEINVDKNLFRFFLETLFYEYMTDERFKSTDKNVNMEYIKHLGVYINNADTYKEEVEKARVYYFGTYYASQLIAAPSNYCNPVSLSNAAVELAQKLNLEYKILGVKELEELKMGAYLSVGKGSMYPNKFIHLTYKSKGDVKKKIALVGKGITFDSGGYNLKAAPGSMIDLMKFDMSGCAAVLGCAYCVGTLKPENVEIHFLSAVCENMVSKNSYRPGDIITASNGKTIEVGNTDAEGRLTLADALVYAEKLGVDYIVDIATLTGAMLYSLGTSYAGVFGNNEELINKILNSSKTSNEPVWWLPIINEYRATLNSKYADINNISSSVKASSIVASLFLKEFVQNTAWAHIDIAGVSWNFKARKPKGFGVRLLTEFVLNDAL

SN12K1 = assay: cells; settings: Homo sapiens
P388/ADR = assay: cells; settings: Mus musculus
P388 = assay: cells; settings: Mus musculus
[1] = target: Induced myeloid leukemia cell differentiation protein Mcl-1 (Homo sapiens, UniProt Q07820)
Induced myeloid leukemia cell differentiation protein Mcl-1, sequence (Q07820 whole entry): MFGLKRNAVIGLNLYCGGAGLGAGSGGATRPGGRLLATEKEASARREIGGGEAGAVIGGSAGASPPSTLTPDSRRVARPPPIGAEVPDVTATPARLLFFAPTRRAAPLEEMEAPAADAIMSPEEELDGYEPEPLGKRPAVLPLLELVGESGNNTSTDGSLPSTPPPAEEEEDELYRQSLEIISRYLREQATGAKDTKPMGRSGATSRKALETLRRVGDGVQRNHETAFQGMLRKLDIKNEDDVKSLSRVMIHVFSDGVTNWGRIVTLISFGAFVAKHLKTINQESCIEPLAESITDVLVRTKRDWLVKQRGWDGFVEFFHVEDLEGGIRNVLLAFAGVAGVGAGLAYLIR

[2] = target: T2, Short transient receptor potential channel 4 (Mus musculus, UniProt Q9QUQ5); assay: block of DAMGO-driven TRPC4 calcium entry – cell-based, HEK293 TRPC4/mu-opioid, Fluo-4 calcium, dose response (AID 434942);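 further: potency of inhibitors blocking the TRPC4 calcium response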
T2 sequence (Q9QUQ5 whole entry): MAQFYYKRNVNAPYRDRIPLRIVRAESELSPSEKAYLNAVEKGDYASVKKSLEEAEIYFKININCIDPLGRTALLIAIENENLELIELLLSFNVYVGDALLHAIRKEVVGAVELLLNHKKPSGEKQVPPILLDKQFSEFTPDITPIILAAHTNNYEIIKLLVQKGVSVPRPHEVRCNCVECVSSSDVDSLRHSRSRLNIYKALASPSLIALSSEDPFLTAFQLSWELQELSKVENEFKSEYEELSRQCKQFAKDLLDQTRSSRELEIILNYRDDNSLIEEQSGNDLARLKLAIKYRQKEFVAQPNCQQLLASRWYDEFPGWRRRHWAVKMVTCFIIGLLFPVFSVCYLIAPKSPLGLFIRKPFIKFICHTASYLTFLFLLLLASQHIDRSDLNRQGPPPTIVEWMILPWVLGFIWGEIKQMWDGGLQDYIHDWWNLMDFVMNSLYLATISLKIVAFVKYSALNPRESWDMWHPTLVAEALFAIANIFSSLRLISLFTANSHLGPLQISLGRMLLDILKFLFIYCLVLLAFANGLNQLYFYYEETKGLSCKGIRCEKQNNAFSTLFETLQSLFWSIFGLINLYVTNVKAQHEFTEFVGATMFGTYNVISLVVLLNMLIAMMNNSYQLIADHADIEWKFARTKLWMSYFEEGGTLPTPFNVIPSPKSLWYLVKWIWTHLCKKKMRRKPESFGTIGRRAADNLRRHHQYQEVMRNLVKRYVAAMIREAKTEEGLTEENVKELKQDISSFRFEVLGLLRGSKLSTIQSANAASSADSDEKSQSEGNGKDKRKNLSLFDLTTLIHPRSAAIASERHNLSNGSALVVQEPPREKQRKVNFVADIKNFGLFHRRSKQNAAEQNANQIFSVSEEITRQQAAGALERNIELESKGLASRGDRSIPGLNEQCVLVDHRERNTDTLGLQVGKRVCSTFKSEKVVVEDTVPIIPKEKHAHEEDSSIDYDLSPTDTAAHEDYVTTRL

Genome polyprotein = Genome polyprotein (dengue virus type 2, UniProt P29990); assay: flavivirus cap methylation enzyme inhibition – biochemical, confirmation dose response, primary screen (AID 588689)
Genome polyprotein, sequence (P29990 2492-3391 limits assumed): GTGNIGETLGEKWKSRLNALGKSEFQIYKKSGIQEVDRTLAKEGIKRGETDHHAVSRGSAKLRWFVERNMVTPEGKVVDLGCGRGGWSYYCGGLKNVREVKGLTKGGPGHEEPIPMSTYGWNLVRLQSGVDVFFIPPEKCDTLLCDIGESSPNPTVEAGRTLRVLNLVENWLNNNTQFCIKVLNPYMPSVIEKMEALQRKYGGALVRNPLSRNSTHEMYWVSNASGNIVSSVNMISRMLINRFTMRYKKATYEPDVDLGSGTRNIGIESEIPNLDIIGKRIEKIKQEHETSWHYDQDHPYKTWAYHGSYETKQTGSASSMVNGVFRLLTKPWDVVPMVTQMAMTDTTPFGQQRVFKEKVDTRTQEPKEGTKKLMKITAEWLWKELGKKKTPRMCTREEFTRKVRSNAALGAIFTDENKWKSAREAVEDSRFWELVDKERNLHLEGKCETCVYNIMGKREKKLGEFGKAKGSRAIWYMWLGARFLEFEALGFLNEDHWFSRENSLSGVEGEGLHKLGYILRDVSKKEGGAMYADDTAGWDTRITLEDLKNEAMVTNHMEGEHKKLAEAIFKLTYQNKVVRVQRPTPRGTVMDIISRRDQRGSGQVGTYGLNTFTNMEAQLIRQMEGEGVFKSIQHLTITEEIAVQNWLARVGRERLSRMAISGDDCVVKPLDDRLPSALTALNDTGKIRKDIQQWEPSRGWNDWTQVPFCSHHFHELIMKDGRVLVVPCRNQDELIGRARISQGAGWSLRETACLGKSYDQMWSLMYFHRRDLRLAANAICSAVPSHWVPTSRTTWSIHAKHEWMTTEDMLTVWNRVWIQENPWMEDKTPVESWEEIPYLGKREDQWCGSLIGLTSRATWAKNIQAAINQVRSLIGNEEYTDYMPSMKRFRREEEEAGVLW

[3] = viability of PTEN-deleted HCT116 cells – cell-based, HCT116 PTEN knockout, dose response (AID 1047);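 further: HCT116 colon tumor cells with PTEN knocked out; cells exposed to compound for 60 hours before readout; potency for loss of cell viability measured by luminescence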
[4] = viability of HCT116 lacking mutant beta-catenin – cell-based, human colon tumor, dose response (AID 1045);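 further: HCT116 colon tumor cells with beta catenin knocked out; cells exposed to compound for 60 hours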
[5] = target: T3, DNA repair and recombination protein RAD54-like (Homo sapiens, UniProt Q92698); assay: RAD54 Holliday junction migration blockers – biochemical, fluorescence, cherry-picked samples, dose series, confirmation (AID 651657)
T3 sequence (Q92698 whole entry): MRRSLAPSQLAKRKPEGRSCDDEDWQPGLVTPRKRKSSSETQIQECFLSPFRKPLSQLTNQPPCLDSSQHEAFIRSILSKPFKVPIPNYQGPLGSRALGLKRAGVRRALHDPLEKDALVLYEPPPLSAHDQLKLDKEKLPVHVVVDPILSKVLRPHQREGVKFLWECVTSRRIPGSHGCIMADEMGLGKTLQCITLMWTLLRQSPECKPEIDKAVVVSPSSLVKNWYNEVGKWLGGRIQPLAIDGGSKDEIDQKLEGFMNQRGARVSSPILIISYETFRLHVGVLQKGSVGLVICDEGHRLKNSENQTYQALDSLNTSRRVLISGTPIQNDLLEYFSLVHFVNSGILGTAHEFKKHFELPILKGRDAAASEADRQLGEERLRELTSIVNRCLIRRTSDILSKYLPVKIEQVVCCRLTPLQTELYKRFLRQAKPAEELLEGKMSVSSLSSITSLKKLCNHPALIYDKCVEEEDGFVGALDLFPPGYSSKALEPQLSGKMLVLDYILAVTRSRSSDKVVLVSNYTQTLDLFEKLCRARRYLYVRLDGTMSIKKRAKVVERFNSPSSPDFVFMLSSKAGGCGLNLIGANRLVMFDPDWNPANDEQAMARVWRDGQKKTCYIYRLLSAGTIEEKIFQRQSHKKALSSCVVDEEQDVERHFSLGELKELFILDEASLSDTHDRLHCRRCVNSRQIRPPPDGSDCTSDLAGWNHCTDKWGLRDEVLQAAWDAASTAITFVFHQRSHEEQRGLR

Protein RecA = target: T4, Protein RecA (Mycobacterium tuberculosis, UniProt P9WHJ3); assay: Fluorescence Cell-Free Homogeneous Dose Retest to Identify Inhibitors of RecA-Intein Splicing Activity. [Related pubchem assays (depositor defined):AID2097, AID2223, AID489010, AID492950]
T4 sequence (P9WHJ3 whole entry): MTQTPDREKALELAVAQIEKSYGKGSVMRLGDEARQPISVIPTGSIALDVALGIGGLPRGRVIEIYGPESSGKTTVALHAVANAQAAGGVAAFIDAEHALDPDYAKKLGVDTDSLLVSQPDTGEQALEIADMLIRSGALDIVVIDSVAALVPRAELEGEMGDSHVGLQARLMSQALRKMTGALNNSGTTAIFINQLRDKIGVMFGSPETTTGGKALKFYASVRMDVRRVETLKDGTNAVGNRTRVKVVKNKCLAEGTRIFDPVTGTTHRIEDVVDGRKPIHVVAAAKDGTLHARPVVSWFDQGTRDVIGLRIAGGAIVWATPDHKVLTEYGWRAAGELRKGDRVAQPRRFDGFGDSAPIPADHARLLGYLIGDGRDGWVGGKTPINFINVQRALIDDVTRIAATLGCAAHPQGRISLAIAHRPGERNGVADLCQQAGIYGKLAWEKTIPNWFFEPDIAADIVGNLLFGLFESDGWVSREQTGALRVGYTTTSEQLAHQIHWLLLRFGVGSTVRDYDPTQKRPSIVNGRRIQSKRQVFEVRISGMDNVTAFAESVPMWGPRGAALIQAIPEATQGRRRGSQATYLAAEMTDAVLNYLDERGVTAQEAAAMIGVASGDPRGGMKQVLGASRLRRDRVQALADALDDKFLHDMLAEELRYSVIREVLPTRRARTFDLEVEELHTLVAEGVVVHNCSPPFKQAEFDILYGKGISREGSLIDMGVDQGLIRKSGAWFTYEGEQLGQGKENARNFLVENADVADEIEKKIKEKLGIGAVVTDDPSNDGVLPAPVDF

[6] = target: T5, Replicative DNA helicase DnaB (Mycobacterium tuberculosis, UniProt P9WMR3); assay: DnaB intein splicing inhibitors, dose response, biochemical, cell-free fluorescence (AID 449749)
T5 sequence (P9WMR3 whole entry): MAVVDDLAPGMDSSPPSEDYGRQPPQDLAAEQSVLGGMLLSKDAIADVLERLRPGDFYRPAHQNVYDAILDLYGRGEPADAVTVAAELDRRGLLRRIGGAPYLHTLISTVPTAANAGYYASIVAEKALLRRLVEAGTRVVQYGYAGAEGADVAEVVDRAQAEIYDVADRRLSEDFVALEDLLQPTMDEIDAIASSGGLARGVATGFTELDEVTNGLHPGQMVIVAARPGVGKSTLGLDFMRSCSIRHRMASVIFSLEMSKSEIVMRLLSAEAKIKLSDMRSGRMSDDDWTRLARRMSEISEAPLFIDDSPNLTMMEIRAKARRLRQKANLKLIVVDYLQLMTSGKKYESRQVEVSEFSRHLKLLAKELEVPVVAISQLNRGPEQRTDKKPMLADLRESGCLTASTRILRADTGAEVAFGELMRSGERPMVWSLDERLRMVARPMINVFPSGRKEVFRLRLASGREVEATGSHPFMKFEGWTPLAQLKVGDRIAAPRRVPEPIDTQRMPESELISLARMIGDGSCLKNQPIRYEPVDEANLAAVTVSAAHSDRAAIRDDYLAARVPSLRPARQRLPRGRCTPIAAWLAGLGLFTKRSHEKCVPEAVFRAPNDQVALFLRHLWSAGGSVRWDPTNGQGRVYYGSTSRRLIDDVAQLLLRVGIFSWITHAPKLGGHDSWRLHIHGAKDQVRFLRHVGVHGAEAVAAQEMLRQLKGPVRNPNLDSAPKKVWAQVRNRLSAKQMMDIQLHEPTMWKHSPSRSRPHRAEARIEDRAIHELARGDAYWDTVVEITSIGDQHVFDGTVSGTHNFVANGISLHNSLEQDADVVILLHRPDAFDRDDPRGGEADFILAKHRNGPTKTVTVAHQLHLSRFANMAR

Row | Structure (SMILES) | GI50 (SN12K1) | GI50 (P388/ADR) | GI50 (P388) | further results
1 | CCc1ccc(NC(=O)C2CCCCC2C(=O)O)cc1 (centres undefined) |  |  |  | IC50 (Leucine aminopeptidase): 12.1 µM (active)
2 | Nc1ccc2c(c1)CN1C(=O)c3ccccc3C1=N2 [DANIQUIDONE] | 23.6 µM (inactive) | 24.8 µM (inactive) | 4.36 µM (inactive) | 
3 | Cc1sccc1/C=N/NC(=O)c1cccc2ccccc12 |  |  |  | IC50 [1]: 21.1 µM (not active)
4 | CC1CCN(S(=O)(=O)c2ccc(NC(=O)CSc3ncccc3C(=O)O)cc2)CC1 |  |  |  | IC50 (Leucine aminopeptidase): 9.68 µM (active)
5 | CC1(C)OC2CC(=O)OCC23C1CC(=O)C1(C)C3CCC2(C)C(c3ccoc3)OC(=O)C3OC321 (centres undefined) | 119 µM (inactive) | > 125 µM (inactive) | > 39.5 µM (inactive) | 
6 | CC(/C=C1\SC(=S)N(C(C(=O)O)C(C)C)C1=O)=C\c1ccccc1 (centres undefined) |  |  |  | EC50 [2]: 5.96 µM (active); IC50 (Genome polyprotein): 34.3 µM (active)
7 | c1ccc2c(c1)SP1Sc3ccccc3P21 (centres undefined) | 56.5 µM (inactive) | 28.2 µM (inactive) | 54.2 µM (inactive) | 
8 | CCOc1ccc(NC(=O)CSCC(=O)O)cc1 |  |  |  | IC50 (Leucine aminopeptidase): 9.94 µM (active)
9 | COc1cc([C@@H]2c3cc4c(c(O)c3C[C@H]3COC(=O)[C@@H]32)OCO4)cc(OC)c1OC [BETA-PELTATIN A] |  | 0.015 µM (active) | 0.015 µM (active) | 
10 | O=C(NC1CN2CCC1CC2)c1cc(Cl)c([N+](=O)[O-])c2nc[nH]c12 (centres undefined) |  |  |  | EC50 [3]: 16.3 µM (active); EC50 [4]: 12.1 µM (active); AC50 [5]: 41.6 µM (active)
11 | Cc1[nH]c2ccccc2c1/C=C/c1nc2ccccc2c(=O)[nH]1 |  |  |  | IC50 [1]: 5.55 µM (active)
12 | COc1cccc2c1C(=O)c1c(O)c3c(c(O)c1C2=O)C[C@@](O)(C(C)=O)C[C@@H]3OC1CC(N(C)C)C(O)C(C)O1 (some centres undefined) | 0.01 µM (active) | 0.01 µM (active) | 0.01 µM (active) | 
13 | CC1=NN(c2ccccc2)C(=O)/C1=C\c1ccc(Oc2ccc([N+](=O)[O-])cc2[N+](=O)[O-])cc1 |  |  |  | EC50 (Protein RecA): 5.33 µM (active); AC50 [6]: 3.66 µM (active); IC50 (Genome polyprotein): 19.3 µM (active)
14 | COc1ccc(CNc2nc3nc(-c4ccccc4)cc(O)n3n2)cc1OC |  |  |  | IC50 (Leucine aminopeptidase): 24.2 µM (active)
15 | COc1cc(C2c3cc4c(cc3[C@@H](Nc3ccc5c(c3)OCO5)C3COC(=O)[C@H]23)OCO4)cc(OC)c1O (some centres undefined) | < 0.0414 µM (active) | 0.0548 µM (active) | < 0.01 µM (active) | 
16 | CN(C)C(=O)OCOC(=O)N(C)C | > 100 µM (inactive) | > 100 µM (inactive) | 66.8 µM (inactive) | 

From ChEMBL document CHEMBL1201862, “PubChem BioAssay data set” (2004)
